Article PMC10796436, “Peptidyl nitroalkene inhibitors of main protease rationalized by computational and crystallographic investigations as antivirals against SARS-CoV-2” (Communications Chemistry, 2024)
“And” between values parts separate entries of the source, which are not always exact repeats. Equal values may be shown once. Read-outs that look alike come from different tables or passages of the source.

How the values were obtained:
M^pro [1] = biological target: T1, M^pro (Severe acute respiratory syndrome coronavirus 2, UniProt P0DTD1); assay: Binding to M^pro by ITC; parameters: DP / DH: unit not given here
M^pro [2] = biological target: T1, M^pro; type: biochemical; conditions: for Fluorescence reading (progress curve): triplicate wells
Protocol: Buffer: 20 mM Tris, 0.1 mM EDTA, 1 mM DTT, 200 mM NaCl pH = 7.5. For the dilution assay Nirmatrelvir[21] was used as a reversible control and LM188[54] as an irreversible control (Fig. 10).
The incubation was done at RT for 30 min in assay buffer. DMSO was used as a control. After incubation the Enzyme/Inhibitor (or DMSO) mixtures were diluted 100-fold in assay buffer.
The preincubation was done in assay buffer (20 mM Tris, 0.1 mM EDTA, 1 mM DTT, 200 mM NaCl, pH = 7.5), at RT for 30 min. After incubation the mixtures were diluted […]
proteolytic activity of the enzyme was measured as described for the enzymatic assays using the […]
activity was measured over 1 h.
Inhibition assay58. Trypsin: Enzyme: bovine trypsin purchased from Sigma-Aldrich (St. Louis, […]
Substrate: Cbz-FR-AMC purchased from Bachem (Bubendorf, Switzerland), [Substrate]: 40 µM […]
The activity against bovine trypsin was tested at 20 µM inhibitor concentration. […]

Permeability, PAMPA = type: in vitro ADME; conditions: UV-quantified, 2–7 h
Protocol: Permeability. General principle after Lit.66 Incubation setup: donor (top) plate (Sigma Aldrich, MAIPNTR10), 5 µL artificial membrane (1 % (w/v) L-α-Phosphatidylcholin, Sigma Aldrich P3556, in n-dodecane, Sigma Aldrich 8205430100), acceptor (bottom) plate (Greiner, 655074).
Measurement setup – UV spectroscopy: UV-transparent measurement plate (Greiner UV-Star®, 655801), Tecan Spark® well plate reader, 200 µL sample volume, λ = 200–650 nm. Analysis was performed with AUC function in GraphPad Prism using the indicated wavelength range.
Sigma D5652; pH 7.4 or TRIS 50 mM pH 7.4) aqueous solution with varying final contents of ACN or DMSO as indicated. (“donor solution”). Similarly prepared solutions (buffer + solvent) were used as “acceptor solutions”. 150 µL of donor solution was applied onto the artificial membrane which was applied first to the donor plate. This was sealed (Greiner, 676070, Viewseal sealer). 400 µL of acceptor solution was applied to the acceptor plate. […] After this time, acceptor solution was analyzed with UV spectroscopy. Reference solutions were prepared by simply mixing the indicated volumes of donor and acceptor solutions at the start of the incubation period and analyzed later with the acceptor solutions. […]
After the incubation period, the reference solution was analyzed by LCMS as described under […]
No permeation can be observed in any of the UV-quantified experiments. […]

Compound: CC(C)C[C@H](NC(=O)OCc1ccccc1)C(=O)N[C@H](/C=C/[N+](=O)[O-])C[C@@H]1CCNC1=O [FGA147]
- Kd (M^pro [1]; ITC, 25 °C): 2.86 ± 0.25 µM
- DH (M^pro [1]; Molar ratio 0.39455): -0.9026
- DH (M^pro [1]; Molar ratio 0.72682): -0.8799
- DH (M^pro [1]; Molar ratio 1.06223): -0.8369
- DP (M^pro [1]; Time 0.08333 min): -0.00244
- DP (M^pro [1]; Time 0.10000 min): -0.00119
- DP (M^pro [1]; Time 0.11667 min): -0.00067

Compound: COc1cccc2[nH]c(C(=O)N[C@@H](CC(C)C)C(=O)N[C@H](/C=C/[N+](=O)[O-])C[C@@H]3CCNC3=O)cc12 [FGA146]
- Fluorescence reading (progress curve) (M^pro [2]; Time 180.071 s): 702 and 681 and 686
- Fluorescence reading (progress curve) (M^pro [2]; Time 210.081 s): 743 and 723 and 735
- Fluorescence reading (progress curve) (M^pro [2]; Time 240.095 s): 788 and 769 and 779
- Fluorescence reading (progress curve) (M^pro [2]; Time 270.113 s): 832 and 815 and 822
- Fluorescence reading (progress curve) (M^pro [2]; Time 300.118 s): 871 and 859 and 876
- Fluorescence reading (progress curve) (M^pro [2]; Time 330.126 s): 913 and 895 and 906
- Fluorescence reading (progress curve) (M^pro [2]; Time 360.134 s): 943 and 930 and 957
- Fluorescence reading (progress curve) (M^pro [2]; Time 390.141 s): 989 and 974 and 988
- Fluorescence reading (progress curve) (M^pro [2]; Time 420.149 s): 1026 and 1011 and 1031
- Fluorescence reading (progress curve) (M^pro [2]; Time 450.157 s): 1063 and 1040
- Fluorescence reading (progress curve) (M^pro [2]; Time 2881.2 s): 2210 and 2162 and 2202
- Fluorescence reading (progress curve) (M^pro [2]; Time 2911.21 s): 2205 and 2168 and 2199
- Fluorescence reading (progress curve) (M^pro [2]; Time 2941.22 s): 2214 and 2173 and 2206
- Fluorescence reading (progress curve) (M^pro [2]; Time 2971.24 s): 2207 and 2185 and 2213
- Fluorescence reading (progress curve) (M^pro [2]; Time 3001.25 s): 2222 and 2185 and 2232
- Fluorescence reading (progress curve) (M^pro [2]; Time 3031.26 s): 2246 and 2178 and 2225
- Fluorescence reading (progress curve) (M^pro [2]; Time 3061.27 s): 2233 and 2191 and 2237
- Fluorescence reading (progress curve) (M^pro [2]; Time 3091.28 s): 2243 and 2199 and 2235
- Fluorescence reading (progress curve) (M^pro [2]; Time 3121.29 s): 2244 and 2187 and 2224
- Fluorescence reading (progress curve) (M^pro [2]; Time 3151.3 s): 2247 and 2204 and 2241
- Fluorescence reading (progress curve) (M^pro [2]; Time 3181.31 s): 2224 and 2196 and 2245
- Fluorescence reading (progress curve) (M^pro [2]; Time 3211.32 s): 2250 and 2188 and 2275
- Fluorescence reading (progress curve) (M^pro [2]; Time 3241.33 s): 2234 and 2200
- Fluorescence reading (progress curve) (M^pro [2]; Time 3271.34 s): 2236 and 2195 and 2245
- Fluorescence reading (progress curve) (M^pro [2]; Time 3301.35 s): 2233 and 2201 and 2238
- Fluorescence reading (progress curve) (M^pro [2]; Time 3331.36 s): 2246 and 2198 and 2261
- Fluorescence reading (progress curve) (M^pro [2]; Time 3361.37 s): 2261 and 2203 and 2250
- Fluorescence reading (progress curve) (M^pro [2]; Time 3391.39 s): 2251 and 2199 and 2248
- Fluorescence reading (progress curve) (M^pro [2]; Time 3421.39 s): 2261 and 2206 and 2226
- Fluorescence reading (progress curve) (M^pro [2]; Time 3451.41 s): 2253 and 2215 and 2257
- Fluorescence reading (progress curve) (M^pro [2]; Time 3481.42 s): 2274 and 2215 and 2263
- Fluorescence reading (progress curve) (M^pro [2]; Time 3511.43 s): 2266 and 2207 and 2242
- Fluorescence reading (progress curve) (M^pro [2]; Time 3541.44 s): 2263 and 2215 and 2260
- Fluorescence reading (progress curve) (M^pro [2]; Time 3571.45 s): 2254 and 2212 and 2248
- recovery of M^pro activity after 100-fold dilution (M^pro [2]; preincubation 30 min): seems to recover over time
- permeation (Permeability, PAMPA): No permeation
